Test system: MV-4-11 cells
Assay: Gene expression microarray analysis (Affymetrix PrimeView) and GSEA
Type: cell-based, human
Set-up: RFU PODN (11730768_x_at) / Fold change /veh PODN (11730768_x_at) / RFU LINC00158 (11744669_a_at) / Fold change /veh LINC00158 (11744669_a_at) / RFU DUSP10 (11751237_a_at) / Fold change /veh DUSP10 (11751237_a_at) / RFU ID3 (11757404_x_at) / Fold change /veh ID3 (11757404_x_at) / RFU PLEKHG5 (11737974_s_at) / Fold change /veh PLEKHG5 (11737974_s_at) / RFU LRRC4B (11730491_at) / Fold change /veh LRRC4B (11730491_at) / RFU GIMAP4 (11747438_a_at) / Fold change /veh GIMAP4 (11747438_a_at) / RFU KRT8 (11758183_x_at) / Fold change /veh KRT8 (11758183_x_at) / RFU CNN1 (11734310_a_at) / Fold change /veh CNN1 (11734310_a_at) / RFU VPS37D (11726825_at) / Fold change /veh VPS37D (11726825_at) / RFU C10orf10 (11716522_x_at) / Fold change /veh C10orf10 (11716522_x_at) / RFU KIR2DL2 /// KIR2DL4 /// KIR2DL5A /// KIR2DL5B /// KIR2DS1 /// KIR2DS2 /// KIR2DS3 /// KIR2DS4 /// KIR3DL3 /// KIR3DL3 /// KIR3DS1 (11738374_at) / Fold change /veh KIR2DL2 /// KIR2DL4 /// KIR2DL5A /// KIR2DL5B /// KIR2DS1 /// KIR2DS2 /// KIR2DS3 /// KIR2DS4 /// KIR3DL3 /// KIR3DL3 /// KIR3DS1 (11738374_at) / RFU C1QL1 (11718748_at) / Fold change /veh C1QL1 (11718748_at) / RFU TMPRSS4 (11747572_a_at) / Fold change /veh TMPRSS4 (11747572_a_at) / RFU HAMP (11756126_x_at) / Fold change /veh HAMP (11756126_x_at) / RFU RNFT2 (11725882_a_at) / Fold change /veh RNFT2 (11725882_a_at) / RFU NR4A2 (11747474_a_at) / Fold change /veh NR4A2 (11747474_a_at) / RFU ABCC12 (11746883_a_at) / Fold change /veh ABCC12 (11746883_a_at) / RFU TMEM136 (11760407_x_at) / Fold change /veh TMEM136 (11760407_x_at) / RFU CLDN22 /// WWC2 (11732394_at) / Fold change /veh CLDN22 /// WWC2 (11732394_at) / RFU HLA-DPB1 (11760878_x_at) / Fold change /veh HLA-DPB1 (11760878_x_at) / RFU SPINT1 (11716480_a_at) / Fold change /veh SPINT1 (11716480_a_at) / RFU GAP43 (11754022_s_at) / Fold change /veh GAP43 (11754022_s_at) / RFU A4GNT (11735810_at) / Fold change /veh A4GNT (11735810_at) / RFU PRB3 (11715151_x_at) / Fold change /veh PRB3 (11715151_x_at) / RFU TUBB4B (11761932_at) / Fold change /veh TUBB4B (11761932_at) / RFU CAPN14 (11732068_a_at) / Fold change /veh CAPN14 (11732068_a_at) / RFU TMCC2 (11721928_a_at) / Fold change /veh TMCC2 (11721928_a_at) / RFU IRGQ (11745062_a_at) / Fold change /veh IRGQ (11745062_a_at) / RFU FAM174B (11720279_a_at) / Fold change /veh FAM174B (11720279_a_at) / RFU TMPRSS4 (11748680_a_at) / Fold change /veh TMPRSS4 (11748680_a_at) / RFU FAM212B (11763350_a_at) / Fold change /veh FAM212B (11763350_a_at) / RFU PLEKHG5 (11743358_a_at) / Fold change /veh PLEKHG5 (11743358_a_at) / RFU ZSCAN30 (11745921_a_at) / Fold change /veh ZSCAN30 (11745921_a_at) / RFU CMKLR1 (11741424_a_at) / Fold change /veh CMKLR1 (11741424_a_at) / RFU LOC101060620 /// MAPK8IP1 (11723275_at) / Fold change /veh LOC101060620 /// MAPK8IP1 (11723275_at) / RFU SPTSSB (11747773_x_at) / Fold change /veh SPTSSB (11747773_x_at) / RFU PRSS12 (11739890_at) / Fold change /veh PRSS12 (11739890_at) / RFU BIN1 (11741810_x_at) / Fold change /veh BIN1 (11741810_x_at) / RFU WNT11 (11732464_a_at) / Fold change /veh WNT11 (11732464_a_at) / RFU C10orf10 (11716521_a_at) / Fold change /veh C10orf10 (11716521_a_at) / RFU C5orf56 (11738089_at) / Fold change /veh C5orf56 (11738089_at) / RFU CYB561 (11721691_x_at) / Fold change /veh CYB561 (11721691_x_at) / RFU ANKRD19P (11752326_a_at) / Fold change /veh ANKRD19P (11752326_a_at) / RFU OR2T12 /// OR2T33 /// OR2T8 (11738714_s_at) / Fold change /veh OR2T12 /// OR2T33 /// OR2T8 (11738714_s_at) / RFU VCAN (11748164_a_at) / Fold change /veh VCAN (11748164_a_at) / RFU JSRP1 (11732532_at) / Fold change /veh JSRP1 (11732532_at) / RFU KRTAP10-11 (11738290_x_at) / Fold change /veh KRTAP10-11 (11738290_x_at) / RFU MYO3A (11730013_a_at) / Fold change /veh MYO3A (11730013_a_at) / RFU EBF3 (11725865_a_at) / Fold change /veh EBF3 (11725865_a_at) / RFU CAMK2N1 (11719241_x_at) / Fold change /veh CAMK2N1 (11719241_x_at) / RFU C5orf56 (11738088_a_at) / Fold change /veh C5orf56 (11738088_a_at) / RFU OLFML3 (11715873_a_at) / Fold change /veh OLFML3 (11715873_a_at) / RFU LOC100653217 /// NTM (11731650_a_at) / Fold change /veh LOC100653217 /// NTM (11731650_a_at) / RFU MAPK11 (11762145_a_at) / Fold change /veh MAPK11 (11762145_a_at) / RFU FIZ1 (11724087_x_at) / Fold change /veh FIZ1 (11724087_x_at) / RFU OASL (11726364_x_at) / Fold change /veh OASL (11726364_x_at) / RFU SOX15 (11748057_x_at) / Fold change /veh SOX15 (11748057_x_at) / RFU CD79A (11719716_a_at) / Fold change /veh CD79A (11719716_a_at) / RFU HIST1H1D (11736915_at) / Fold change /veh HIST1H1D (11736915_at) / RFU CASKIN2 (11723855_a_at) / Fold change /veh CASKIN2 (11723855_a_at) / RFU LOC730098 (11760151_x_at) / Fold change /veh LOC730098 (11760151_x_at) / RFU OR4N2 (11742367_at) / Fold change /veh OR4N2 (11742367_at) / RFU PRRT2 (11749266_a_at) / Fold change /veh PRRT2 (11749266_a_at) / RFU SNX32 (11753110_a_at) / Fold change /veh SNX32 (11753110_a_at) / RFU CDHR5 (11726645_a_at) / Fold change /veh CDHR5 (11726645_a_at) / RFU RCAN1 (11760418_a_at) / Fold change /veh RCAN1 (11760418_a_at) / RFU FAM167A (11723789_a_at) / Fold change /veh FAM167A (11723789_a_at) / RFU FAM26E (11764081_at) / Fold change /veh FAM26E (11764081_at) / RFU ISYNA1 (11749810_s_at) / Fold change /veh ISYNA1 (11749810_s_at) / RFU ACY1 (11761880_at) / Fold change /veh ACY1 (11761880_at) / RFU 11764098_at / Fold change /veh 11764098_at / RFU SAMD14 (11745864_x_at) / Fold change /veh SAMD14 (11745864_x_at) / RFU NPB (11741838_a_at) / Fold change /veh NPB (11741838_a_at) / RFU TMPRSS6 (11731388_a_at) / Fold change /veh TMPRSS6 (11731388_a_at) / RFU KRTAP10-2 (11738614_at) / Fold change /veh KRTAP10-2 (11738614_at) / RFU ARHGAP8 /// PRR5-ARHGAP8 (11727945_x_at) / Fold change /veh ARHGAP8 /// PRR5-ARHGAP8 (11727945_x_at) / RFU KRTAP5-7 /// NADSYN1 (11734609_at) / Fold change /veh KRTAP5-7 /// NADSYN1 (11734609_at) / RFU RASL12 (11751679_a_at) / Fold change /veh RASL12 (11751679_a_at) / RFU CDKN2B (11736163_a_at) / Fold change /veh CDKN2B (11736163_a_at) / RFU PRF1 (11729649_at) / Fold change /veh PRF1 (11729649_at) / RFU, ZNF638 /// ZNF638-IT1 / Fold change vs veh, ZNF638 /// ZNF638-IT1 / RFU, PANK3 / Fold change vs veh, PANK3 / RFU, SH3YL1 / Fold change vs veh, SH3YL1 / RFU, ZEB2 / Fold change vs veh, ZEB2 / RFU, NRIP1 / Fold change vs veh, NRIP1 / RFU, PTTG1IP / Fold change vs veh, PTTG1IP / RFU, CAPN2 / Fold change vs veh, CAPN2 / RFU, MED14 / Fold change vs veh, MED14 / RFU, SNORA58 / Fold change vs veh, SNORA58 / RFU, C1orf63 / Fold change vs veh, C1orf63 / RFU, LRRFIP1 / Fold change vs veh, LRRFIP1 / RFU, NDUFAF7 / Fold change vs veh, NDUFAF7 / RFU, SLC12A2 / Fold change vs veh, SLC12A2 / RFU, IBTK / Fold change vs veh, IBTK / RFU, ESF1 / Fold change vs veh, ESF1 / Fold change vs veh, TMEM50B / RFU, TAOK1 / Fold change vs veh, TAOK1 / RFU, ACBD3 / Fold change vs veh, ACBD3 / RFU, TMA16 / Fold change vs veh, TMA16 / RFU, RWDD3 / Fold change vs veh, RWDD3 / RFU, BCAT1 / Fold change vs veh, BCAT1 / RFU, EDEM3 / Fold change vs veh, EDEM3 / RFU, TMEM33 / Fold change vs veh, TMEM33 / RFU, WDR75 / Fold change vs veh, WDR75 / RFU, AHCTF1 / Fold change vs veh, AHCTF1 / RFU, TFRC / Fold change vs veh, TFRC / RFU, ZDHHC17 / Fold change vs veh, ZDHHC17 / RFU, NOM1 / Fold change vs veh, NOM1 / RFU, ARL8B / Fold change vs veh, ARL8B / RFU, ZBTB11 / Fold change vs veh, ZBTB11 / RFU, TAMM41 / Fold change vs veh, TAMM41 / RFU, KIAA1704 /// LOC100996395 / Fold change vs veh, KIAA1704 /// LOC100996395 / RFU, ING1 / Fold change vs veh, ING1 / RFU, TRMT61B / Fold change vs veh, TRMT61B / RFU, FUBP3 / Fold change vs veh, FUBP3 / RFU, TP53 / Fold change vs veh, TP53 / RFU, TNKS2 / Fold change vs veh, TNKS2 / RFU, ZFP14 / Fold change vs veh, ZFP14 / RFU, ACTR2 / Fold change vs veh, ACTR2 / RFU, PPP3R1 / Fold change vs veh, PPP3R1 / RFU, PIK3R1 / Fold change vs veh, PIK3R1 / RFU, HNRNPA1 / Fold change vs veh, HNRNPA1 / RFU, RNF170 / Fold change vs veh, RNF170 / RFU, ZNF28 / Fold change vs veh, ZNF28 / RFU, RNGTT / Fold change vs veh, RNGTT / RFU, OGT / Fold change vs veh, OGT / RFU, BRD1 / Fold change vs veh, BRD1 / RFU, MARS / Fold change vs veh, MARS / RFU, ZNF655 / Fold change vs veh, ZNF655 / RFU, FAHD1 / Fold change vs veh, FAHD1 / RFU, BDP1 / Fold change vs veh, BDP1 / RFU, LRRCC1 / Fold change vs veh, LRRCC1 / RFU, ARID1A / Fold change vs veh, ARID1A / RFU, ZNF146 / Fold change vs veh, ZNF146 / RFU, ZNF330 / Fold change vs veh, ZNF330 / RFU, GPN3 / Fold change vs veh, GPN3 / RFU, C9orf123 / Fold change vs veh, C9orf123 / RFU, N4BP2L2 / Fold change vs veh, N4BP2L2 / RFU, ARFIP1 / Fold change vs veh, ARFIP1 / RFU, FAM179B / Fold change vs veh, FAM179B / RFU, BCL10 / Fold change vs veh, BCL10 / RFU, UHRF1BP1L / Fold change vs veh, UHRF1BP1L / RFU, BET1 / Fold change vs veh, BET1 / RFU, CNOT2 / Fold change vs veh, CNOT2 / RFU, ZNF268 / Fold change vs veh, ZNF268 / Fold change vs veh, ZNF507 / RFU, DGCR2 / Fold change vs veh, DGCR2 / RFU, WDSUB1 / Fold change vs veh, WDSUB1 / Fold change vs veh, HSP90B1 /// MIR3652 / RFU, ADSS / Fold change vs veh, ADSS / RFU, GK / Fold change vs veh, GK / RFU, ZNF148 / Fold change vs veh, ZNF148 / RFU, TAF9 / Fold change vs veh, TAF9 / RFU, SLC1A5 / Fold change vs veh, SLC1A5 / RFU, SLMO2 / Fold change vs veh, SLMO2 / RFU, ABCC4 / Fold change vs veh, ABCC4 / RFU, LOC101060439 /// RAP1B / Fold change vs veh, LOC101060439 /// RAP1B / RFU, RFX7 / Fold change vs veh, RFX7 / RFU, GTPBP10 / Fold change vs veh, GTPBP10 / RFU, CNEP1R1 / Fold change vs veh, CNEP1R1 / RFU, BIVM-ERCC5 /// ERCC5 / Fold change vs veh, BIVM-ERCC5 /// ERCC5 / RFU, ILF3 / Fold change vs veh, ILF3 / RFU 11762660_at / Fold change /veh 11762660_at / RFU VCAN (11757783_s_at) / Fold change /veh VCAN (11757783_s_at) / RFU DDX43 (11728927_at) / Fold change /veh DDX43 (11728927_at) / RFU KRT8 (11758188_x_at) / Fold change /veh KRT8 (11758188_x_at) / RFU NKD1 (11759106_at) / Fold change /veh NKD1 (11759106_at) / RFU SRD5A1 (11742802_a_at) / Fold change /veh SRD5A1 (11742802_a_at) / RFU TPSAB1 /// TPSB2 (11721975_s_at) / Fold change /veh TPSAB1 /// TPSB2 (11721975_s_at) / RFU GSTM3 (11746129_a_at) / Fold change /veh GSTM3 (11746129_a_at) / RFU IL23R (11737362_x_at) / Fold change /veh IL23R (11737362_x_at) / RFU TMEM51 (11727254_a_at) / Fold change /veh TMEM51 (11727254_a_at) / RFU PIWIL2 (11732686_x_at) / Fold change /veh PIWIL2 (11732686_x_at) / RFU ORM1 (11744905_x_at) / Fold change /veh ORM1 (11744905_x_at) / RFU CCDC152 (11743942_at) / Fold change /veh CCDC152 (11743942_at) / RFU ECM1 (11717891_a_at) / Fold change /veh ECM1 (11717891_a_at) / RFU IL23R (11748794_a_at) / Fold change /veh IL23R (11748794_a_at) / RFU TNFAIP8L3 (11732012_x_at) / Fold change /veh TNFAIP8L3 (11732012_x_at) / RFU MBOAT4 (11741988_at) / Fold change /veh MBOAT4 (11741988_at) / RFU 11764193_at / Fold change /veh 11764193_at / RFU TMEM53 (11763286_at) / Fold change /veh TMEM53 (11763286_at) / RFU MAGEB2 (11727129_at) / Fold change /veh MAGEB2 (11727129_at) / RFU TMEM200A (11744735_a_at) / Fold change /veh TMEM200A (11744735_a_at) / RFU CCDC152 (11751479_a_at) / Fold change /veh CCDC152 (11751479_a_at) / RFU FAM211A (11726209_a_at) / Fold change /veh FAM211A (11726209_a_at) / RFU RGS16 (11746705_a_at) / Fold change /veh RGS16 (11746705_a_at) / RFU VCAN (11755009_s_at) / Fold change /veh VCAN (11755009_s_at) / RFU RHOB (11743442_s_at) / Fold change /veh RHOB (11743442_s_at) / RFU RGS16 (11720943_a_at) / Fold change /veh RGS16 (11720943_a_at) / RFU RGS16 (11720944_at) / Fold change /veh RGS16 (11720944_at) / RFU, VPS4B / Fold change vs veh, VPS4B / RFU, CREB1 / Fold change vs veh, CREB1 / RFU, DNAJC13 / Fold change vs veh, DNAJC13 / RFU, GNAQ / Fold change vs veh, GNAQ / RFU, CDK5R1 / Fold change vs veh, CDK5R1 / RFU, ZRANB3 / Fold change vs veh, ZRANB3 / RFU, CUL4A / Fold change vs veh, CUL4A / RFU, CCNY / Fold change vs veh, CCNY / RFU, UFL1 / Fold change vs veh, UFL1 / RFU, COG3 / Fold change vs veh, COG3 / RFU, DIAPH2 / Fold change vs veh, DIAPH2 / RFU, SKA2 / Fold change vs veh, SKA2 / RFU, AFF3 / Fold change vs veh, AFF3 / RFU, LMF1 / Fold change vs veh, LMF1 / RFU, IPO11 / Fold change vs veh, IPO11 / RFU, DFFB / Fold change vs veh, DFFB / RFU, FOXP1 / Fold change vs veh, FOXP1 / RFU, CARD8 / Fold change vs veh, CARD8 / RFU, STRN3 / Fold change vs veh, STRN3 / RFU, ADK / Fold change vs veh, ADK / RFU, RASSF2 / Fold change vs veh, RASSF2 / RFU, WIPF1 / Fold change vs veh, WIPF1 / RFU, LARP1B / Fold change vs veh, LARP1B / RFU, RASA1 / Fold change vs veh, RASA1 / RFU, RB1 / Fold change vs veh, RB1 / RFU, PPFIA1 / Fold change vs veh, PPFIA1 / RFU, MAT2A / Fold change vs veh, MAT2A / RFU, CCT5 / Fold change vs veh, CCT5 / RFU, WDR92 / Fold change vs veh, WDR92 / RFU, CUX1 / Fold change vs veh, CUX1 / RFU, TTC7A / Fold change vs veh, TTC7A / RFU, TMEM135 / Fold change vs veh, TMEM135 / RFU, DEPTOR / Fold change vs veh, DEPTOR / RFU, CPM / Fold change vs veh, CPM / RFU, DNAJB6 / Fold change vs veh, DNAJB6 / RFU, CACNA2D3 / Fold change vs veh, CACNA2D3 / RFU, DTX4 / Fold change vs veh, DTX4 / RFU, TFCP2 / Fold change vs veh, TFCP2 / RFU, GMCL1 /// GMCL1P1 / Fold change vs veh, GMCL1 /// GMCL1P1 / RFU, AEBP2 / Fold change vs veh, AEBP2 / RFU, SNHG1 /// SNORD22 /// SNORD25 /// SNORD26 /// SNORD27 /// SNORD28 /// SNORD29 /// SNORD31 / Fold change vs veh, SNHG1 /// SNORD22 /// SNORD25 /// SNORD26 /// SNORD27 /// SNORD28 /// SNORD29 /// SNORD31 / Fold change (Aza/veh), C12orf56 (ProbeSet 11735607_a_at) / Fold change (ACY-1035/veh), C12orf56 (ProbeSet 11735607_a_at) / Fold change (Aza/veh), FGFR1OP (ProbeSet 11751329_s_at) / Fold change (ACY-1035/veh), FGFR1OP (ProbeSet 11751329_s_at) / Fold change (Aza/veh), VPS36 (ProbeSet 11739960_a_at) / Fold change (ACY-1035/veh), VPS36 (ProbeSet 11739960_a_at) / RFU SYPL1 (11715823_x_at) / Fold change /veh SYPL1 (11715823_x_at) / RFU IGFBP7 (11715501_s_at) / Fold change /veh IGFBP7 (11715501_s_at) / RFU REEP3 (11722064_at) / Fold change /veh REEP3 (11722064_at) / RFU IGLL1 (11728026_x_at) / Fold change /veh IGLL1 (11728026_x_at): dose or concentration left out as unconfirmed
Conditions: ProbeSet 11743286_at; LIST D

Nc1ccc(-c2cccs2)cc1NC(=O)c1ccc2c(c1)cc(C1CC1)n2CCN1CCOCC1 [ACY-1035]
Fold change vs veh, DTX4: 0.97

From paper PMC5218480 (PLoS ONE, 2017)
